PMC6973020, “Quinoline‐Conjugated Ruthenacarboranes: Toward Hybrid Drugs with a Dual Mode of Action” (Chemmedchem, 2019)
Where “and” joins values, the source holds several entries; their conditions need not be identical. Equal values may be shown once.

What was measured:
[1] = test system: primary non‐malignant mouse macrophages (Mph); assay: Crystal violet (CV) cell viability assay, peritoneal macrophages (Mph); assay type: cell-based; details: 72 h
From the text: (§1) Thus, care must be taken when comparing their biological activities with those of our previous studies, even with the same cell line, because the covalent vs. non‐covalent combination of drugs might imply different mechanisms of action in the cell.44 Here, we studied the in vitro activity of ruthenacarborane 3, i. e. free acid, and its 8‐hydroxyquinolyl (4) and 4‐{(7‐chloroquinolin‐4‐yl)oxy}butanol‐1‐yl (5) esters, against a panel of cancer cell lines (B16 mouse melanoma, A375 human skin melanoma, MCF‐7 human breast adenocarcinoma, LN229 human glioblastoma, U251 human glioma). Human fibroblast cell line MRC‐5, murine microglial cell line BV‐2 as well as peritoneal exudate cells (Mph), were chosen as models for non‐malignant cells. […] On the other side, we wanted to assess the reproducibility of the viability data, under either controlled (with BSA) or uncontrolled (without BSA) conditions, in two sets of independent assays. […] Cells were exposed to 3–5 for 72 h, after which cell viability was determined via 3‐(4,5‐dimethylthiazol‐2‐yl)‐2,5‐diphenyltetrazolium bromide (MTT) and crystal violet (CV) assays, in parallel (Table 2). Cisplatin was also tested as reference.
(§2) Preparation of drug solutions. […] Stock solution of cisplatin was prepared in DMF (10 mM) immediately before use. A stock solution of BSA in PBS was prepared at 1.28 mM concentration, and stored at 4 °C in the dark. […] Alternatively, 3 or 4 (DMSO stock solution) were added to the BSA solution in PBS, always with a 10 : 1 molar ratio of BSA to ruthenacarborane. […]
(§3) Colorimetric assays for cellular viability. […] The absorbance was measured with an automated microplate reader at λmax 540 nm, with the reference λmax 670 nm. Untreated cells or cells treated only with BSA (control) were also measured, as reference for BSA‐free and BSA‐containing drug formulations, respectively. […] Cell viability is expressed as percentage (%) relative to control (untreated cultures).58 Experiments were run in three independent replicates. […]

[2] = Solubility in organic solvents (qualitative); assay type: physicochemical
[3] = test system: murine microglial cell line BV‐2; assay: MTT cell viability assay, BV‐2; assay type: cell-based, mouse; details: 72 h
From the text: as §1, §2, §3

[4] = Nanoparticle Tracking Analysis (NTA) in PBS/DMSO, with and without BSA; assay type: physicochemical; details: PBS, without BSA, 20 μM, 25 °C
Experimental: Nanoparticle Tracking Analysis (NTA). 3 and 4 were analyzed via NTA to study the modulation of self‐assembly behavior in PBS/DMSO mixture (pH 7.4), with and without BSA, in an analogous way as described previously.9 Samples of 3 and 4 in PBS/DMSO were prepared as described above for UV‐vis measurements. The solutions were measured 30 min after preparation. Samples of BSA−3 and BSA−4 were prepared with two different BSA:ruthenacarborane ratios, namely 10 : 1 and 1 : 1. Stock solutions of BSA in PBS ([BSA]PBS=1.128 mM) were diluted to final concentrations of 200 or 20 μM with PBS (Vfin=5 mL), then an aliquot of the stock solution of 3 or 4 was added, so that the final concentration of metallacarborane was 20 μM. Content of DMSO was adjusted to 1 vol % (considering the amount of DMSO from the stock solutions) before addition of the ruthenacarborane, in all samples. The solutions of BSA−ruthenacarborane were measured 3.5–6 h after preparation. BSA alone in PBS/DMSO was also measured, as blank, using the same capture and processing parameters as for the respective BSA−metallacarborane samples, for direct comparison. All NTA measurements were performed at 25±0.1 °C. Each sample was measured in five independent captures. The time of each capture was set to 60 s.

LN229 cells = assay: Wound healing assay, LN229; assay type: cell-based, human; details: LN229, IC50 dose, 72 h

closo ‐[3‐(η^6‐p‐Cymene)‐1‐(quinolin‐8‐yl‐acetate)‐3,1,2‐RuC2B9H10] [Compound 4]
IC50 [1]: 94 ± 7.7 µM | solubility in organic solvents (in words) [2]: soluble in dichloromethane, chloroform, acetone and DMSO | IC50 [3]: 8.7 ± 0.1 µM | concentration of self‐assemblies [4]: 10^6–10^7 particles mL^−1 | cell motility (wound healing assay, in words) (LN229 cells): inhibited motility

closo‐ [Compound 3, closo‐ [3‐(η^6‐p‐Cymene)‐1‐(CH2COOH)‐3,1,2‐RuC2B9H10]]
IC50 [1]: 49 µM and 49.1 µM | solubility in organic solvents (in words) [2]: soluble in acetone, THF, acetonitrile and DMSO, moderately soluble in chloroform and dichloromethane | IC50 [3]: 64.7 ± 0.7 µM | concentration of self‐assemblies [4]: 10^6–10^7 particles mL^−1 | cell motility (wound healing assay, in words) (LN229 cells): inhibited motility
